Test results from patent publication US12171255B2, “Shisha, heat-not-burn, or combustion casing, product, and method of making the same” (Tobacco Technology, Inc., priority 2020, dated 2024).

Test system: microbial growth
Assay: Inhibition of microbial growth (preservative effect)

Compound	amount that can inhibit microbial growth and act as a preservative (in casing)	effectiveness at inhibiting microbial growth compared with propylene glycol
CC(O)CO (centres unmarked) [propylene glycol]	above 15 % by weight	–
O=C(O)CC(O)(CC(=O)O)C(=O)O [citric acid]	–	more effective at inhibiting microbial growth than propylene glycol
